“Also recorded” adds a separate entry of the source.
Legend:
Type in all cases: cell-based
OVCAR-3 = assay: Cell proliferation assay; settings: Homo sapiens; Ovarian OVCAR-3; loss of p16 (mutant p53)
SW626 = assay: Cell proliferation assay; settings: Homo sapiens; Table 7a; Ovarian (SW626)
A2780 = assay: Senescence quantification (SA-βGal); settings: Compound 42 50, 100, or 150 nM, 96 hours, compared to control (DMSO)
Protocol: (§1) Senescence was quantified in ovarian cell lines A2780, OAW42, and ES-2. Cell lines A2780 has no cyclin D pathway mutations and has wt Rb and Parkin expression. Cell line OAW42 has increased CDK4 and increased CDK6 with wt Rb and Parkin expression. Cell line ES-2 has increased cyclin D and increased mutant […] with wt Rb and Parkin expression.
(§2) Day 1: 96 well plate was seeded with 4000 cells/well and incubated for 24 hours at 37° C.
(§3) Day 2: Compound 42 (50, 100, or 150 nM) or palbociclib (1 μM) as positive control were added to the wells and the plate was incubated for 96 hours at 37° C.
(§4) Day 6: Senescence cells histochemical Staining Kit (Sigma) was used. The growth medium form the cells were aspirated then washed twice with fresh […]. […] 100 μL filtered Fixation Buffer was added per well and the plate was incubated for 6-7 minutes at room temperature. Then, the cells were rinsed 3 times with PBS. 50 μL of the Staining Mixture was added per well and incubated at 37° C. overnight without CO2 (staining is pH dependent). After staining, the Staining Mixture was removed, PBS and Hoechst dye (1 μg/mL) were added. Ten images were taken with Epifluorescence Microscope using the blue filter and 10 images were taken in the brightfield. The images were used to count the total cell number—the positive blue cells were counted in the bright field. The percentage of cells expressing β-galactosidase was calculated.
(§5) Method 1: Mammalian β-Galactosidase Assay Kit (Thermo Scientific) was used. […] The cells were washed once with PBS. 100 μL of the β-Galactosidase Assay Reagent was added to each well and the plate was covered and incubated for 30 minutes at 37° C. without CO2. The absorbance was measured at 405 nm. If no change was observed, the plate was incubated for an extra 30 minutes.
(§6) Method 2: Assay of a portion of the lysate. The cells were washed once with PBS. 50 μL of the M-PER Reagent was added to each well and the plate was incubated at room temperature for […]. 25 μL of lysate was removed and use it for Protein Quantification (BCA). The date was normalize by protein content.

ES-2 = assay: Senescence quantification (SA-βGal); settings: Compound 42 50, 100, or 150 nM, 96 hours, compared to control (DMSO)
Protocol: as §1, §2, §3, §4, §5, §6

OAW42 = assay: Senescence quantification (SA-βGal); settings: Compound 42 50, 100, or 150 nM, 96 hours, compared to control (DMSO)
Protocol: as §1, §2, §3, §4, §5, §6

OAW28 = assay: Senescence quantification (SA-βGal); settings: OAW28, loss of Rb expression
Protocol: as §2, §3, §4
Method 1: Mammalian β-Galactosidase Assay Kit (Thermo Scientific) was used. […] The cells were washed once with PBS. […] The absorbance was measured at 405 nm. […]
Method 2: Assay of a portion of the lysate. […] 25 μL of lysate was removed and use it for Protein Quantification (BCA). […]

cyclin D1 = assay: Western blot of cellular biomarker cyclin D1
Protocol: Various cancer cells lines were treated with Compound 42 or palbociclib (control) to measure the expression of cyclin D, cyclin E, pRb, and Rb.
Day 1: 6 well plate was seeded with 3×10^5 cells/well with a final volume of 3 mL and incubated for 24 hours at 37° C.
Day 2: The media was removed and Compound 42 (see below for dose) or palbociclib (1 μM) as positive control were added to the wells the desired concentration in cell culture media, giving a final volume of 3 mL per well. The plate was incubated for 24 hours at 37° C. (or desired period).
Day 3: The media was removed from wells and washed ×3 with PBS. 500 μl of trypsin was added to the wells and incubate until cells detach. 500 μl media was added to neutralise trypsin, transferred to 2 ml Eppendorfs, and centrifuged (1500 RPM for 5 minutes). While spinning, the wells were washed with 1 mL PBS to collect any remaining cells. This wash was used to centrifuged cell pellet. After the first spin, the supernatant was discarded and the pellet was washed with PBS collected from the previous step. The centrifugation step was repeated and the supernatant was discarded and the pellet wash again with fresh PBS. The centrifugation and wash with PBS was repeated one more time. RIPA cell lysate buffer was prepared and Protease Inhibitor Cocktail was included. The supernatant was discarded and […] RIPA cell lysate buffer was added to the pellet. The protein concentration was determined using the BCA assay kit.
Day 4: Western blot analysis was performed. 4-12% Bis-Tris gel and MOPS running buffer was used. The running buffer was made to sufficient volume of running buffer to 1× concentration. 20 μg protein (v/v loading & reducing buffer) of each sample was loaded into wells. Some proteins may require more, or less, protein loaded. The gel was ran at standard settings 200 V for 45 minutes. Once gel has run, the gel was transferred for 7 minutes using the iBlot Blotting System. The membrane was blocked using 5% non-fat powdered milk* made up in 1×TBS containing 0.1% Tween (TBS-T and incubated for 1 hr with gentle rocking. The observation from the Western blot analysis is quantified in FIGS. 2-7D.
Cell lines A2780 (ovarian cell line with no cyclin D pathway mutations), ES-2 (ovarian cell line with cyclin D amplification, p53 mutation), OAW42, and SW626 were treated with DMSO (control), 250 nM of Compound 42, or 1 μM of Palbociclib. Treated cells were incubated for 24 hours and data represented in FIGS. 2-5 represents n=3.

With `Cc1ccccc1C(=O)Nc1nc(NC(=O)c2ccccc2C)n(-c2ccc(OC(F)(F)F)cc2)n1` [Compound 42, N,N′-(1-(4-(trifluoromethoxy)phenyl)-1H-1,2,4-triazole-3,5-diyl)bis(2-methylbenzamide)] the IC50 (OVCAR-3) was 0.14 µM, the EC50 (SW626) was 0.334 µM and the “senescence (SA-βGal levels)” value (A2780) was “induced senescence”. The “senescence (SA-βGal levels)” value (ES-2) was “induced senescence”, the “senescence (SA-βGal levels)” value (OAW42) was “induced senescence” and the cell senescence (OAW28) was “not observed; also recorded: no senescence; also recorded: += weak senescence due to loss of RB”. For the same molecule, the “Cyclin D1 expression” value (cyclin D1; A2780, 250 nM Compound 42, 1 μM Palbociclib, 24 hours) was “reduction of cyclin D1 expressions”, the “Cyclin D1 expression” value (cyclin D1; ES-2, 250 nM Compound 42, 1 μM Palbociclib, 24 hours) was “reduction of cyclin D1 expressions” and the “Cyclin D1 expression” value (cyclin D1; HT116, with increasing concentration) was “reduction”. For the same molecule, the “Cyclin D1 expression” value (cyclin D1; OAW42, 250 nM Compound 42, 1 μM Palbociclib, 24 hours) was “reduction of cyclin D1 expressions” and the “Cyclin D1 expression” value (cyclin D1; SW626, 250 nM Compound 42, 1 μM Palbociclib, 24 hours) was “reduction of cyclin D1 expressions”.
